Values after ≈ are worked out from the molar mass of the structure shown. Active and inactive are the calls of the source. The rule behind the calls is not given here.
Columns and labels:
[1] = Antioxidant activity assessed as potassium ferric cyanide reducing power at 10 ug after 20 mins by spectrophotometry; assay type: functional
A549 [2] = test: Anticancer activity against human A549 cells assessed as cell growth at 20 ug/mL by sulforhodamine B assay; assay type: functional; conditions: read-out: Activity
A498 [3] = test: Anticancer activity against human A498 cells assessed as cell growth at 10 ug/mL by sulforhodamine B assay; assay type: functional; conditions: read-out: Activity
A498 [4] = test: Anticancer activity against human A498 cells assessed as cell growth at 20 ug/mL by sulforhodamine B assay; assay type: functional; conditions: read-out: Activity
[5] = Antioxidant activity assessed as potassium ferric cyanide reducing power at 100 ug after 20 mins by spectrophotometry; assay type: functional
Nucleic Acid = test: Induction of Escherichia coli DNA cleavage at 100 ug after 2 hrs by agarose gel electrophoresis; assay type: nucleic-acid assay
A498 [6] = test: Anticancer activity against human A498 cells assessed as cell growth at 80 ug/mL by sulforhodamine B assay; assay type: functional; conditions: read-out: Activity
A549 [7] = test: Anticancer activity against human A549 cells assessed as cell growth at 80 ug/mL by sulforhodamine B assay; assay type: functional; conditions: read-out: Activity
A498 [8] = test: Anticancer activity against human A498 cells assessed as cell growth at 40 ug/mL by sulforhodamine B assay; assay type: functional; conditions: read-out: Activity
[9] = tested on: Mycobacterium tuberculosis; test: Antitubercular activity against Mycobacterium tuberculosis H37Rv after 3 weeks by turbidity assay; assay type: functional; conditions: 504 h
A549 [10] = test: Cytotoxicity against human A549 cells; assay type: functional
[11] = Antioxidant activity assessed as potassium ferric cyanide reducing power at 50 ug after 20 mins by spectrophotometry; assay type: functional
A498 [12] = test: Cytotoxicity against human A498 cells; assay type: functional
A549 [13] = test: Anticancer activity against human A549 cells assessed as cell growth at 10 ug/mL by sulforhodamine B assay; assay type: functional; conditions: read-out: Activity
A549 [14] = test: Anticancer activity against human A549 cells assessed as cell growth at 40 ug/mL by sulforhodamine B assay; assay type: functional; conditions: read-out: Activity

Row | SMILES | reducing power [1] | growth at 20 µg/mL (A549 [2]) | growth at 10 µg/mL (A498 [3]) | growth at 20 µg/mL (A498 [4]) | reducing power [5] | Activity (Nucleic Acid) | growth at 80 µg/mL (A498 [6]) | growth at 80 µg/mL (A549 [7]) | growth at 40 µg/mL (A498 [8]) | MIC [9] | GI50 (A549 [10]) | LC50 (A549 [10]) | TGI (A549 [10]) | reducing power [11] | GI50 (A498 [12]) | LC50 (A498 [12]) | TGI (A498 [12]) | growth at 10 µg/mL (A549 [13]) | growth at 40 µg/mL (A549 [14])
1 | Oc1ccccc1C1CC(c2ccc3[nH]c4c(c3c2)CCCC4)=NN1 (configuration not stated) | 0.118 absorbance | -2.9% | 99.3% | 99.5% | 0.246 absorbance | inactive | 16.5% | -28.4% | 97.7% | 4.5 µg/mL (≈ 13.6 µM) | 75.7 µg/mL (≈ 228 µM) | > 70 µg/mL | > 70 µg/mL | 0.137 absorbance | 62.3 µg/mL (≈ 188 µM) | > 80 µg/mL | > 80 µg/mL | 11.9% | -18.5%
2 | CC1CC(c2ccc3[nH]c4c(c3c2)CCCC4)=NN1 (configuration not stated) | 0.02 absorbance | 81.6% | 80% | 82% | 0.13 absorbance | inactive | 4% | 12.1% | 85% | 3.5 µg/mL (≈ 13.8 µM) | 52.5 µg/mL (≈ 207 µM) | > 70 µg/mL | > 70 µg/mL | 0.105 absorbance | 55.2 µg/mL (≈ 218 µM) | > 70 µg/mL | > 70 µg/mL | 90.2% | 75.7%
3 | NC(=O)c1cnccn1 [PYRAZINAMIDE] | – | – | – | – | – | – | – | – | – | 10 µg/mL (≈ 81.2 µM) | – | – | – | – | – | – | – | – | –
4 | C(=C\C1CC(c2ccc3[nH]c4c(c3c2)CCCC4)=NN1)/c1ccccc1 (configuration not stated) | 0.19 absorbance | 94.8% | 99.5% | 99.7% | 0.67 absorbance | inactive | 6% | 48.7% | 95.7% | 25 µg/mL (≈ 73.2 µM) | 54 µg/mL (≈ 158 µM) | > 80 µg/mL | > 80 µg/mL | 0.47 absorbance | 57 µg/mL (≈ 167 µM) | > 80 µg/mL | > 80 µg/mL | 98.8% | 88.4%
5 | COc1ccc(C2CC(c3ccc4[nH]c5c(c4c3)CCCC5)=NN2)cc1 (configuration not stated) | 0.193 absorbance | 76.2% | 98.3% | 100% | 0.673 absorbance | inactive | 4.2% | 15.3% | 97.7% | 10 µg/mL (≈ 28.9 µM) | 56.2 µg/mL (≈ 163 µM) | > 80 µg/mL | > 80 µg/mL | 0.473 absorbance | 55 µg/mL (≈ 159 µM) | > 80 µg/mL | > 80 µg/mL | 81.6% | 69.4%
6 | Clc1ccccc1C1CC(c2ccc3[nH]c4c(c3c2)CCCC4)=NN1 (configuration not stated) | 0.004 absorbance | 81.6% | 100% | 100% | 0.295 absorbance | inactive | 16.2% | 12.1% | 97.4% | 5 µg/mL (≈ 14.3 µM) | 51.6 µg/mL (≈ 147 µM) | > 80 µg/mL | > 80 µg/mL | 0.121 absorbance | 62 µg/mL (≈ 177 µM) | > 80 µg/mL | > 80 µg/mL | 90.2% | 75.7%
7 | COc1cccc2c1C(=O)c1c(O)c3c(c(O)c1C2=O)C[C@@](O)(C(=O)CO)C[C@@H]3O[C@H]1C[C@H](N)[C@H](O)[C@H](C)O1 [DOXORUBICIN] | – | 8.2% | 10.7% | 8.2% | – | – | -66.9% | -66.9% | -39.5% | – | < 10 µg/mL | – | 41.3 µg/mL (≈ 76 µM) | – | < 10 µg/mL | – | 32.4 µg/mL (≈ 59.6 µM) | 10.7% | -39.5%
8 | c1ccc(C2CC(c3ccc4[nH]c5c(c4c3)CCCC5)=NN2)cc1 (configuration not stated) | 0.01 absorbance | 94.8% | 100% | 99.1% | 0.126 absorbance | inactive | 3.9% | 48.7% | 95.9% | 12 µg/mL (≈ 38 µM) | > 80 µg/mL | > 80 µg/mL | > 80 µg/mL | 0.102 absorbance | 55.6 µg/mL (≈ 176 µM) | > 80 µg/mL | > 80 µg/mL | 98.8% | 88.4%
9 | Oc1ccc(C2CC(c3ccc4[nH]c5c(c4c3)CCCC5)=NN2)cc1 (configuration not stated) | 0.125 absorbance | 74.6% | 83% | 86% | 0.25 absorbance | inactive | 3.9% | 11.5% | 83% | 3.5 µg/mL (≈ 10.6 µM) | 76.5 µg/mL (≈ 231 µM) | > 70 µg/mL | > 70 µg/mL | 0.14 absorbance | 74.5 µg/mL (≈ 225 µM) | > 70 µg/mL | > 70 µg/mL | 83.2% | 67.1%
10 | CN[C@@H]1[C@H](O[C@H]2[C@H](O[C@H]3[C@H](O)[C@@H](O)[C@H](N=C(N)N)[C@@H](O)[C@@H]3N=C(N)N)O[C@@H](C)[C@]2(O)C=O)O[C@@H](CO)[C@H](O)[C@H]1O [STREPTOMYCIN] | – | – | – | – | – | – | – | – | – | 7.5 µg/mL (≈ 12.9 µM) | – | – | – | – | – | – | – | – | –
